Source: US8329645B2, “Polymyxin derivatives and uses thereof” (priority 2008, dated 2012)

Columns and labels:
[1] = tested on: three strains of A. baumannii; experiment: E-test sensitization by NAB7061, summary over strains; type: cell-based; settings: Acinetobacter baumannii, read-out: resulting MIC values in the presence of NAB7061 (4 μg/ml)
Source text: (§1) The strains originated from ATCC (11 strains), CCUG (11 strains), and NCTC (The National Collection of Type Cultures, Colindale, U.K.; 2 strains). Eight strains (the F-strains) were purchased from Mobidiag Ltd., Helsinki, Finland.

E. coli ATCC25922 = settings: E. coli ATCC25922
In short: (§2)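 Gradient-strip (E-strip) method, performed per manufacturer's protocol; MIC read where growth inhibition met the strip.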

K. pneumoniae ATCC13883 = settings: K. pneumoniae ATCC13883
In short: as §2

P. aeruginosa ATCC 27853 = experiment: E-test MIC of antibiotics on Mueller Hinton agar containing increasing concentrations of NAB739; type: cell-based, Pseudomonas aeruginosa
E. cloacae ATCC23355 = experiment: E-test MIC with or without NAB7061 (4 μg/ml), Mueller-Hinton agar; type: cell-based, Enterobacter cloacae
In short: as §2

E. cloacae F230 = experiment: as above; type: cell-based, Enterobacter cloacae
In short: as §2

E. cloacae CCUG52947 = experiment: as above; type: cell-based, Enterobacter cloacae
In short: as §2

E. cloacae F232 = experiment: as above; type: cell-based, Enterobacter cloacae
In short: as §2

A. baumannii ATCC19606 = experiment: E-test MIC of antibiotics on Mueller Hinton agar containing increasing concentrations of NAB739; type: cell-based, Acinetobacter baumannii
S. marcescens ATCC8100 = experiment: E-test MIC with or without NAB7061 (4 μg/ml), Mueller-Hinton agar; type: cell-based, Serratia marcescens
Experimental: (§3) MICs were determined by using E-strips (Biodisk Ltd., Solna, Sweden) according to the manufacturer's instructions.
as §1

C. freundii ATCC8090 = experiment: as above; type: cell-based, Citrobacter freundii
Experimental: as §3, §1

A. baumannii F264 = experiment: E-test MIC of antibiotics on Mueller Hinton agar containing increasing concentrations of NAB739; type: cell-based, Acinetobacter baumannii
S. maltophilia ATCC17444 = experiment: E-test MIC with or without NAB7061 (4 μg/ml), Mueller-Hinton agar; type: cell-based
Experimental: as §3, §1

P. vulgaris ATCC13315 = experiment: as above; type: cell-based
Experimental: as §3, §1

Ac. baumannii F263 = experiment: as above; type: cell-based, Acinetobacter baumannii; settings: Ac. baumannii F263
Experimental: as §3, §1

Ac. baumannii F264 = experiment: as above; type: cell-based, Acinetobacter baumannii; settings: Ac. baumannii F264
Experimental: as §3, §1

Ac. baumannii ATCC19606 = experiment: as above; type: cell-based, Acinetobacter baumannii; settings: Ac. baumannii ATCC19606
Experimental: as §3, §1

K. oxytoca CCUG51683 = experiment: as above; type: cell-based, Klebsiella oxytoca
Experimental: as §3, §1

K. oxytoca ATCC13182 = experiment: as above; type: cell-based, Klebsiella oxytoca
Experimental: as §3, §1

P. mirabilis ATCC29906 = experiment: as above; type: cell-based, Proteus mirabilis
Experimental: as §3, §1

K. pneumoniae CCUG45421 = experiment: as above; type: cell-based, Klebsiella pneumoniae
Experimental: as §3, §1

K. pneumoniae F144 = experiment: as above; type: cell-based, Klebsiella pneumoniae
Experimental: as §3, §1

K. pneumoniae F136 = experiment: as above; type: cell-based, Klebsiella pneumoniae
Experimental: as §3, §1

K. pneumoniae F145 = experiment: as above; type: cell-based, Klebsiella pneumoniae
Experimental: as §3, §1

E. coli NCTC13353 = experiment: as above; type: cell-based, Escherichia coli
In short: as §2

E. coli NCTC13351 = experiment: as above; type: cell-based, Escherichia coli
In short: as §2

E. coli CCUG41422 = experiment: as above; type: cell-based, Escherichia coli
In short: as §2

E. coli IH3080 [2] = experiment: as above; type: cell-based, Escherichia coli
In short: as §2

E. coli CCUG41427 = experiment: as above; type: cell-based, Escherichia coli
In short: as §2

E. coli CCUG41432 = experiment: as above; type: cell-based, Escherichia coli
In short: as §2

E. coli CCUG41424 = experiment: as above; type: cell-based, Escherichia coli
In short: as §2

E. coli CCUG41421 = experiment: as above; type: cell-based, Escherichia coli
In short: as §2

E. coli CCUG41429 = experiment: as above; type: cell-based, Escherichia coli
In short: as §2

E. coli CCUG41425 = experiment: as above; type: cell-based, Escherichia coli
In short: as §2

P. aeruginosa CCUG51971 = experiment: as above; type: cell-based, Pseudomonas aeruginosa
Experimental: as §3, §1

P. aeruginosa ATCC27853 = experiment: as above; type: cell-based, Pseudomonas aeruginosa
Experimental: as §3, §1

E. coli = settings: Sakura et al. (2004); cited from earlier work
[3] = tested on: Pseudomonas aeruginosa ATCC 27853; experiment: Growth inhibition around wells on LB agar plates; type: cell-based; settings: Ps. aeruginosa ATCC 27853
In short: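 Activity against Pseudomonas aeruginosa ATCC 27853 was assessed by agar well diffusion on LB plates. A suspension of about 10^8 cells/ml in 0.9% NaCl was spread over the agar and the excess removed. Once the surface had dried, 2 mm wells were drilled and filled with peptide dissolved in 0.9% NaCl. Plates were incubated 18 h at 37° C, and inhibition zone diameters were converted to areas in square mm.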

E. coli IH3080 [4] = experiment: Growth inhibition around wells on LB agar plates; type: cell-based, Escherichia coli
In short: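 Growth inhibition of encapsulated E. coli IH3080 (K1:O018) was assessed on LB agar plates. A suspension of about 10^8 cells/ml in 0.9% NaCl, made from an overnight LB agar culture, was spread across the plate surface and the excess removed. After drying, 2 mm wells were drilled, with 0.9% NaCl as control. Following 18 h at 37° C., inhibition zone diameters around wells were converted to areas in square mm.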

E. coli IH3080 [5] = experiment: Sensitization to rifampin: growth inhibition around wells on LB plates containing rifampin; type: cell-based, Escherichia coli; settings: 4 μg of compound
[6] = tested on: Ps. aeruginosa ATCC 27853; experiment: as above; type: cell-based, Pseudomonas aeruginosa; settings: 4 μg

## CC[C@H]1OC(=O)[C@H](C)[C@@H](O[C@H]2C[C@@](C)(OC)[C@@H](O)[C@H](C)O2)[C@H](C)[C@@H](O[C@@H]2O[C@H](C)C[C@H](N(C)C)[C@H]2O)[C@](C)(OC)C[C@@H](C)C(=O)[C@H](C)[C@@H](O)[C@]1(C)O [Clarithromycin]
[1]
  MIC: ≤ 0.5 µg/mL
E. coli ATCC25922
  MIC of antibiotic in the presence of 4 μg/ml of NAB 7061: 0.094 to 0.125 µg/mL
K. pneumoniae ATCC13883
  MIC of antibiotic in the presence of 4 μg/ml of NAB 7061: 0.19 µg/mL
P. aeruginosa ATCC 27853; NAB 739 0 μg/ml
  MIC of antibiotic in the presence of NAB739: 48 µg/mL
P. aeruginosa ATCC 27853; NAB 739 0.5 μg/ml
  MIC of antibiotic in the presence of NAB739: 16 µg/mL
P. aeruginosa ATCC 27853; NAB 739 1 μg/ml
  MIC of antibiotic in the presence of NAB739: 12 µg/mL
P. aeruginosa ATCC 27853; NAB 739 2 μg/ml
  MIC of antibiotic in the presence of NAB739: 3 µg/mL
P. aeruginosa ATCC 27853; NAB 739 […]
  MIC of antibiotic in the presence of NAB739: 32 µg/mL
E. cloacae ATCC23355
  MIC of antibiotic in the presence of 4 μg/ml of NAB 7061: 0.25 to 0.75 µg/mL
E. cloacae F230
  MIC of antibiotic in the presence of 4 μg/ml of NAB 7061: 0.047 µg/mL
E. cloacae CCUG52947
  MIC of antibiotic in the presence of 4 μg/ml of NAB 7061: 0.38 µg/mL
E. cloacae F232
  MIC of antibiotic in the presence of 4 μg/ml of NAB 7061: 0.094 µg/mL
A. baumannii ATCC19606; NAB 739 0 μg/ml
  MIC of antibiotic in the presence of NAB739: 8 µg/mL
A. baumannii ATCC19606; NAB 739 0.5 μg/ml
  MIC of antibiotic in the presence of NAB739: 0.5 µg/mL
A. baumannii ATCC19606; NAB 739 1 μg/ml
  MIC of antibiotic in the presence of NAB739: 0.094 µg/mL
S. marcescens ATCC8100
  MIC of antibiotic in the presence of 4 μg/ml of NAB 7061: 96 µg/mL
C. freundii ATCC8090
  MIC of antibiotic in the presence of 4 μg/ml of NAB 7061: 0.125 µg/mL
A. baumannii F264; NAB 739 0 μg/ml
  MIC of antibiotic in the presence of NAB739: 6 µg/mL
A. baumannii F264; NAB 739 0.5 μg/ml
  MIC of antibiotic in the presence of NAB739: 0.5 µg/mL
A. baumannii F264; NAB 739 1 μg/ml
  MIC of antibiotic in the presence of NAB739: 0.125 µg/mL
S. maltophilia ATCC17444
  MIC of antibiotic in the presence of 4 μg/ml of NAB 7061: 64 µg/mL
P. vulgaris ATCC13315
  MIC of antibiotic in the presence of 4 μg/ml of NAB 7061: 24 µg/mL
Ac. baumannii F263
  MIC of antibiotic in the presence of 4 μg/ml of NAB 7061: 0.38 µg/mL
Ac. baumannii F264
  MIC of antibiotic in the presence of 4 μg/ml of NAB 7061: 0.25 µg/mL
Ac. baumannii ATCC19606
  MIC of antibiotic in the presence of 4 μg/ml of NAB 7061: 0.5 µg/mL
K. oxytoca CCUG51683
  MIC of antibiotic in the presence of 4 μg/ml of NAB 7061: 0.19 µg/mL
K. oxytoca ATCC13182
  MIC of antibiotic in the presence of 4 μg/ml of NAB 7061: 0.25 µg/mL
P. mirabilis ATCC29906
  MIC of antibiotic in the presence of 4 μg/ml of NAB 7061: 24 µg/mL
K. pneumoniae CCUG45421
  MIC of antibiotic in the presence of 4 μg/ml of NAB 7061: 24 µg/mL
K. pneumoniae F144
  MIC of antibiotic in the presence of 4 μg/ml of NAB 7061: 0.75 µg/mL
K. pneumoniae F136
  MIC of antibiotic in the presence of 4 μg/ml of NAB 7061: 2 µg/mL
K. pneumoniae F145
  MIC of antibiotic in the presence of 4 μg/ml of NAB 7061: 0.25 µg/mL
E. coli NCTC13353
  MIC of antibiotic in the presence of 4 μg/ml of NAB 7061: 1 µg/mL
E. coli NCTC13351
  MIC of antibiotic in the presence of 4 μg/ml of NAB 7061: 0.032 µg/mL
E. coli CCUG41422
  MIC of antibiotic in the presence of 4 μg/ml of NAB 7061: 0.25 µg/mL
E. coli IH3080 [2]
  MIC of antibiotic in the presence of 4 μg/ml of NAB 7061: 0.047 to 0.064 µg/mL
E. coli CCUG41427
  MIC of antibiotic in the presence of 4 μg/ml of NAB 7061: 0.064 µg/mL
E. coli CCUG41432
  MIC of antibiotic in the presence of 4 μg/ml of NAB 7061: 0.064 µg/mL
E. coli CCUG41424
  MIC of antibiotic in the presence of 4 μg/ml of NAB 7061: 0.125 µg/mL
E. coli CCUG41421
  MIC of antibiotic in the presence of 4 μg/ml of NAB 7061: 0.125 µg/mL
E. coli CCUG41429
  MIC of antibiotic in the presence of 4 μg/ml of NAB 7061: 0.064 µg/mL
E. coli CCUG41425
  MIC of antibiotic in the presence of 4 μg/ml of NAB 7061: 0.047 µg/mL
P. aeruginosa CCUG51971
  MIC of antibiotic in the presence of 4 μg/ml of NAB 7061: 64 µg/mL
P. aeruginosa ATCC27853
  MIC of antibiotic in the presence of 4 μg/ml of NAB 7061: 32 µg/mL

## octanoyl polymyxin B heptapeptide [Octanoyl PMBH, reference compound]
E. coli
  concentration needed to inhibit the growth of bacteria: 128 µg/mL
[3]; 4 μg
  growth inhibition around a well: 0 square millimeters
[3]; 10 μg
  growth inhibition around a well: 13 square millimeters
E. coli IH3080 [4]; 4 μg of compound per well
  growth inhibition around a well: 0 square millimeters
E. coli IH3080 [4]; 10 μg of compound per well
  growth inhibition around a well: 0 square millimeters
E. coli IH3080 [5]; rifampin 0 μg/ml
  growth inhibition around a well in the presence of rifampin: 0 square millimeters
E. coli IH3080 [5]; rifampin 0.1 μg/ml
  growth inhibition around a well in the presence of rifampin: 0 square millimeters
E. coli IH3080 [5]; rifampin 1.0 μg/ml
  growth inhibition around a well in the presence of rifampin: 38 square millimeters
[6]; rifampin 0 μg/ml
  growth inhibition around a well in the presence of rifampin: 0 square millimeters
[6]; rifampin 0.1 μg/ml
  growth inhibition around a well in the presence of rifampin: 13 square millimeters
[6]; rifampin 0.3 μg/ml
  growth inhibition around a well in the presence of rifampin: 13 square millimeters
